{
  "source": "ChEMBL document CHEMBL1201862",
  "about": "“PubChem BioAssay data set” (2004)",
  "key": {"[1]": {"target": "T1, Polyadenylate-binding protein 1 (Homo sapiens, UniProt P11940)", "T1 sequence (P11940 whole entry)": "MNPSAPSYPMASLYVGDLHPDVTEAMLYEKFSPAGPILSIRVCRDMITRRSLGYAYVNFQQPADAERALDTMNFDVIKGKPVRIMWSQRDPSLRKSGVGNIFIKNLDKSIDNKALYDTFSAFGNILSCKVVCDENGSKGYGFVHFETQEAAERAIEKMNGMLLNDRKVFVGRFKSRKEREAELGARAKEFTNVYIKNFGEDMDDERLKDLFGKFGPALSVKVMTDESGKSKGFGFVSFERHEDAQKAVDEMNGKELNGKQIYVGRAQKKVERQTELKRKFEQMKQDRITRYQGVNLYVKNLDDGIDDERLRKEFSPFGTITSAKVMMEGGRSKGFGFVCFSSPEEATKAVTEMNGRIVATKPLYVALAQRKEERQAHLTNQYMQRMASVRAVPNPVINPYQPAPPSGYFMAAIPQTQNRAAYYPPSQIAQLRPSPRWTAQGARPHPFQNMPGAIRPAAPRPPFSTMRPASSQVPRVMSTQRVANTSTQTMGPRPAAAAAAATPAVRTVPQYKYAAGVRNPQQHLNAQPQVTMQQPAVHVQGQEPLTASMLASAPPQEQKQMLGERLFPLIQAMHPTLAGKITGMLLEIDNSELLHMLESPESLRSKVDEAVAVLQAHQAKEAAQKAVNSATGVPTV", "test": "PABP1 MLLE–PAM2 binding inhibitor potency, dose response, biochemical, fluorescence polarization, FITC-PAM2 peptide (AID 602259)", "assay_type": "functional", "details": "read-out: IC50_Mean"}, "[2]": {"target": "T1, Polyadenylate-binding protein 1", "test": "PABP1 MLLE–PAM2 interaction inhibitors, dose response, miRNA deadenylation inhibitor project, biochemical, fluorescence polarization, Cy5-PAM2 peptide, secondary (AID 602260)", "assay_type": "functional", "details": "read-out: IC50_Mean"}, "[3]": {"test": "HepG2 cell cytotoxicity, dose response, cytotoxicity control for Shn3 inhibitor project, CellTiter-Glo, cherry-picked (AID 624134)", "assay_type": "functional, cell-based"}, "[4]": {"test": "control 3'UTR Renilla luciferase suppression, dose response, counter-screen for Shn3 inhibitor project, cell-based, Clone20-Shn3RL, cherry-picked (AID 624133)", "assay_type": "functional"}, "[5]": {"test": "Luminescence Cell-Based Dose Retest to Confirm Inhibitors of Cancer Stem Cells. [Related pubchem assays (depositor defined):AID2717, AID2721]", "assay_type": "functional", "details": "Homo sapiens"}, "[6]": {"test": "Shn3 3'UTR reporter inhibitors, dose response, cell-based, Clone20 osteoblasts, firefly luciferase, cherry-picked (AID 624132)", "assay_type": "functional"}, "[7]": {"target": "T2, Corticotropin-releasing factor receptor 2/Corticotropin-releasing factor-binding protein (Homo sapiens, UniProt P24387+Q13324)", "T2 sequence (Q13324 whole entry)": "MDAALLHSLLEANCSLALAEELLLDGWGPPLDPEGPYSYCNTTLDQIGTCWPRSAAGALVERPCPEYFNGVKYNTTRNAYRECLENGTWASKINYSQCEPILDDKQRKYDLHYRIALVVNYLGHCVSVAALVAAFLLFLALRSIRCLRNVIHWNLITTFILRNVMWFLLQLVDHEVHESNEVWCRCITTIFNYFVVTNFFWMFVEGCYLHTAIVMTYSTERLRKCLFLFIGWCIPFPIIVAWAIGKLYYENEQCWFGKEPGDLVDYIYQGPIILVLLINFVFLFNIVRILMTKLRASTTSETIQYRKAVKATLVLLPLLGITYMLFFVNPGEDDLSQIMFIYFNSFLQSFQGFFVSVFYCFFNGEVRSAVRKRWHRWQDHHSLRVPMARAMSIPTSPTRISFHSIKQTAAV", "T2 sequence (P24387 whole entry)": "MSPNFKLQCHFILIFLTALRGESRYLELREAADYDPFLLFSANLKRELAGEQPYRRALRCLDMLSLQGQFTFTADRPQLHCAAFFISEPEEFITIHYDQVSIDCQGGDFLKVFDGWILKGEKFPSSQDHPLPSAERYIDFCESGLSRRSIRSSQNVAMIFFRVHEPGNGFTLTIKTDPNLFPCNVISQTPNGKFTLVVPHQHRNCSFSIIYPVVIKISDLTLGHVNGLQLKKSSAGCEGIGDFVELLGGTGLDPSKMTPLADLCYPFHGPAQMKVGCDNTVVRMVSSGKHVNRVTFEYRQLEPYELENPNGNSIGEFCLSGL", "test": "activators of CRF receptor 2 with binding protein – uHTS hits, confirmation (AID 602473)", "assay_type": "functional", "details": "read-out: EC50_Mean"}, "[8]": {"target": "T2, Corticotropin-releasing factor receptor 2/Corticotropin-releasing factor-binding protein", "test": "Dose Response confirmation of uHTS hits for small molecule antagonists of the CRF-binding protein and CRF-R2 receptor complex.", "assay_type": "functional", "details": "read-out: IC50_Mean"}, "[9]": {"target": "T3, Heat shock factor protein 1 (Mus musculus, UniProt P38532)", "T3 sequence (P38532 whole entry)": "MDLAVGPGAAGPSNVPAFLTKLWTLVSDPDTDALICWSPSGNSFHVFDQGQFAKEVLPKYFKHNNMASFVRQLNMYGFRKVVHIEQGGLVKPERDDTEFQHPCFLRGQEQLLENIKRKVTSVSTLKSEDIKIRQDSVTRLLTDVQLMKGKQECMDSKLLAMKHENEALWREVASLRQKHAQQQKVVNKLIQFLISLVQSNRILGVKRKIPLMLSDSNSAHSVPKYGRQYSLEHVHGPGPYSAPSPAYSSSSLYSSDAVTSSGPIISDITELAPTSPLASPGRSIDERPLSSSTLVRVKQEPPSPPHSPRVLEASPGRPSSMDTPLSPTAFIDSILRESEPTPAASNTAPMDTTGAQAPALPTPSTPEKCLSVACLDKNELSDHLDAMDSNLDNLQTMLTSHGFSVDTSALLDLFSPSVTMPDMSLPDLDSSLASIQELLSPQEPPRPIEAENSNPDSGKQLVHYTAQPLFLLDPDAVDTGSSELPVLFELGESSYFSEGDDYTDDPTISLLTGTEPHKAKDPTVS", "test": "HSF1 potentiators in luciferase reporter cells, confirmation, cell-based, NIH3T3, luminescence, dose retest (AID 435004);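 further: stress induced by proteasome inhibitor MG132 added 30 min after compound; actives raise luminescence as potentiators of the MG132 stress response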", "assay_type": "functional"}, "[10]": {"test": "C. albicans growth with fluconazole, confirmation, fluorescence, retest (AID 2467)", "assay_type": "functional, cell-based"}, "[11]": {"test": "NIH-3T3 fibroblast cytotoxicity, dose response, cytotoxicity control, cell-based, fluorescence, Alamar Blue, secondary assay (AID 2327);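 further: NIH-3T3 mouse fibroblasts cultured with fluconazole at 8 µg/mL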", "assay_type": "functional"}, "INS1": {"system": "INS1", "test": "beta cell apoptosis inhibitors, cytokine rescue, dose response, luminescence, retest (AID 449756);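 further: cell death triggered by IL-1 beta plus TNF-alpha plus IFN-gamma mixture; protective hits raise ATP signal compared with cytokine alone wells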", "assay_type": "functional, cell-based", "details": "Rattus norvegicus"}, "[12]": {"target": "T3, Heat shock factor protein 1", "test": "inhibition of MG132-induced HSE-luciferase signal, confirmation, cell-based, NIH3T3, luminescence, dose retest (AID 2382);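 further: NIH3T3 fibroblasts with HSF1-driven luciferase reporter stressed by proteasome inhibitor MG132; luminescence from HSF1-driven luciferase expression after 8 hours of MG132 stress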", "assay_type": "functional"}, "Streptokinase A": {"target": "T4, Streptokinase A (Streptococcus pyogenes serotype M1, UniProt P10520)", "T4 sequence (P10520 whole entry)": "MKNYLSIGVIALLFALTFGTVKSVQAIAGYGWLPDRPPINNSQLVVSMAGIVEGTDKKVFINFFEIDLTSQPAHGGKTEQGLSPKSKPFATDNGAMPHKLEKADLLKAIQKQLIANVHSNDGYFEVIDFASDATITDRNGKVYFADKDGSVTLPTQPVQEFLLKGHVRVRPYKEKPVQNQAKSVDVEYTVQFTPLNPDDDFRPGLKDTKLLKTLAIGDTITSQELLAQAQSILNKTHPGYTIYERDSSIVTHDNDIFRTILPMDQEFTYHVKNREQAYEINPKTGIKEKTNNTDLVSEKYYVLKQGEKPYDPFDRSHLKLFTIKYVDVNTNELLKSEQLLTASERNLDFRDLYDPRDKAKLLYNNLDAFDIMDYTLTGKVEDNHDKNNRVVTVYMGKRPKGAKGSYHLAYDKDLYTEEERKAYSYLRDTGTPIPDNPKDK", "test": "S. pyogenes streptokinase expression inhibitors, potency, dose response, plasminogen activation absorbance, OD405 (AID 1914);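 further: secreted streptokinase activity via plasminogen activation per viability signal from cell pellet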", "assay_type": "functional, Streptococcus pyogenes M1 GAS"}, "[13]": {"system": "Streptococcus sp. 'group A'", "test": "growth inhibition of control SK(-) GAS strain, dose response, counter-screen for streptokinase expression inhibitor project, luminescence, kanamycin, BacTiterGlo, confirmation (AID 1900)", "assay_type": "functional, organism-based"}, "Streptococcus": {"system": "Streptococcus", "test": "Group A Streptococcus viability loss, dose response, counter-screen for streptokinase expression inhibitor project, luminescence, BacTiterGlo (AID 1915);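 further: potency for reduction of bacterial viability or growth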", "assay_type": "functional, organism-based"}},
  "note": "Counter-ions that a name gives are not always drawn. Activity calls are given as the source filed them.",
  "data": [
    {"smiles": "O=C(NC(=S)Nc1cccc(O)c1)c1cncc(Br)c1", "values": [
      {"measurement": "IC50", "setting": "[1]", "value": "> 66 µM (inactive)"},
      {"measurement": "IC50", "setting": "[2]", "value": "> 66 µM (inactive)"}
    ]},
    {"smiles": "CC[C@H](C)[C@H]1O[C@]2(CC[C@@H]1C)C[C@@H]1C[C@@H](CC=C(C)[C@@H](O[C@H]3C[C@H](OC)[C@@H](O[C@H]4C[C@H](OC)[C@@H](O)[C@H](C)O4)[C@H](C)O3)[C@@H](C)C=CC=C3CO[C@@H]4[C@H](O)C(C)=C[C@@H](C(=O)O1)[C@]34O)O2", "values": [
      {"measurement": "AC50", "setting": "[3]", "value": "31.2 µM (active)"},
      {"measurement": "AC50", "setting": "[4]", "value": "20.3 µM (active)"},
      {"measurement": "AC50", "setting": "[5]", "value": "1.22 µM (active)"},
      {"measurement": "AC50", "setting": "[6]", "value": "6.32 µM (active)"}
    ]},
    {"smiles": "O=[N+]([O-])c1cc2c(c(CSc3nnc(Nc4ccccc4)s3)c1)OCOC2", "values": [
      {"measurement": "AC50", "setting": "[3]", "value": "55.6 µM (active)"},
      {"measurement": "AC50", "setting": "[4]", "value": "9.43 µM (active)"},
      {"measurement": "AC50", "setting": "[6]", "value": "3.62 µM (active)"}
    ]},
    {"smiles": "COC(=O)c1ccc(CSc2nc3ccccc3c(=O)n2-c2cccc(OC)c2)o1", "values": [
      {"measurement": "EC50", "setting": "[7]", "value": "> 53 µM (inactive)"},
      {"measurement": "IC50", "setting": "[8]", "value": "4.06 µM (active)"}
    ]},
    {"smiles": "O=C(NNC(=O)c1cccc(S(=O)(=O)N2CCCCC2)c1)c1ccccc1", "values": [
      {"measurement": "EC50", "setting": "[7]", "value": "> 53 µM (inactive)"},
      {"measurement": "IC50", "setting": "[8]", "value": "> 47.1 µM (inactive)"}
    ]},
    {"smiles": "C=CCN1C(=O)NC(=O)/C(=C(/CC)Nc2ccccc2NC(=O)CC)C1=O", "values": [
      {"measurement": "EC50", "setting": "[7]", "value": "> 53 µM (inactive)"},
      {"measurement": "IC50", "setting": "[8]", "value": "> 47.1 µM (inactive)"}
    ]},
    {"smiles": "CC1(C)CC(=O)C2=C(C1)N(Cc1ccco1)C(=O)C2(O)C(F)(F)F", "note": "(configuration not stated)", "values": [
      {"measurement": "EC50", "setting": "[7]", "value": "> 53 µM (inactive)"},
      {"measurement": "IC50", "setting": "[8]", "value": "> 47.1 µM (inactive)"}
    ]},
    {"smiles": "CC(N=C(S)Nc1ccccc1C(F)(F)F)C1CC2CCC1C2", "note": "(configuration not stated)", "values": [
      {"measurement": "IC50", "setting": "[1]", "value": "> 66 µM (inactive)"},
      {"measurement": "IC50", "setting": "[2]", "value": "> 66 µM (inactive)"}
    ]},
    {"smiles": "Cc1cc(F)ccc1NCc1cc2c(cc1[N+](=O)[O-])OCO2", "values": [
      {"measurement": "EC50", "setting": "[9]", "value": "> 260 µM (inactive)"}
    ]},
    {"smiles": "Cc1ccc2[nH]c(SCC(=O)NCc3ccc(F)cc3)nc2c1", "values": [
      {"measurement": "EC50", "setting": "[9]", "value": "> 260 µM (inactive)"}
    ]},
    {"smiles": "NC(=O)CCN1CCN(CCOC2Cc3cc(Cl)ccc3Sc3ccccc32)CC1", "note": "(configuration not stated)", "values": [
      {"measurement": "EC50", "setting": "[9]", "value": "> 260 µM (inactive)"}
    ]},
    {"smiles": "CN(C/C=C/C#CC(C)(C)C)Cc1cccc2ccccc12", "note": "[TERBINAFINE HYDROCHLORIDE]", "values": [
      {"measurement": "EC50", "setting": "[10]", "value": "2.94 µM (inconclusive)"},
      {"measurement": "EC50", "setting": "[11]", "value": "> 160 µM (inactive)"}
    ]},
    {"smiles": "COCC1CCCCN1C(=O)c1cc(COc2ccc3ncccc3c2)on1", "note": "(configuration not stated)", "values": [
      {"measurement": "AC50", "setting": "INS1", "value": "3.15 µM (active)"},
      {"measurement": "AC50", "setting": "[3]", "value": "28.9 µM (active)"},
      {"measurement": "EC50", "setting": "[12]", "value": "> 195 µM (not active)"},
      {"measurement": "AC50", "setting": "[4]", "value": "3.12 µM (active)"},
      {"measurement": "AC50", "setting": "[6]", "value": "0.33 µM (active)"}
    ]},
    {"smiles": "COc1ccc(CCNC(=O)COc2ccc(N(C)S(=O)(=O)c3ccc(C)cc3)cc2)cc1OC", "values": [
      {"measurement": "EC50", "setting": "[7]", "value": "> 53 µM (inactive)"},
      {"measurement": "IC50", "setting": "[8]", "value": "> 47.1 µM (inactive)"}
    ]},
    {"smiles": "CC(=O)C1(O)CCC2C3CC(C)C4=CC(=O)C=CC4(C)C3(F)C(O)CC21C", "note": "(configuration not stated)", "values": [
      {"measurement": "EC50", "setting": "[7]", "value": "> 53 µM (inactive)"},
      {"measurement": "IC50", "setting": "[8]", "value": "> 47.1 µM (inactive)"}
    ]},
    {"smiles": "Cn1cc([N+](=O)[O-])c(C(=O)Nc2ccc(-c3nc4ccccc4[nH]3)cc2)n1", "values": [
      {"measurement": "EC50", "setting": "[9]", "value": "32 µM (active)"}
    ]},
    {"smiles": "Cc1csc(NC(=O)c2c(O)c3c(n(CC(C)C)c2=O)CCCC3)n1", "values": [
      {"measurement": "EC50", "setting": "Streptokinase A", "value": "> 150 µM (not active)"},
      {"measurement": "EC50", "setting": "[13]", "value": "11 µM (active)"},
      {"measurement": "EC50", "setting": "Streptococcus", "value": "17.3 µM (active)"}
    ]}
  ]
}
